The nature of series [1]: Metabolic stability in dog hepatocytes. It counts as in vitro ADME. The conditions noted are these: cryopreserved hepatocytes. How it is done:
(§1) Cryopreserved hepatocytes were carefully thawed in a 37 °C water bath for approximately 1 min, and transferred to a tube containing pre-warmed thawing medium. The supernatants were removed and the pellets were resuspended in KHB at a final cell density of 1 × 10^6 cells/mL, based on hemocytometer counting using trypan blue exclusion. A ETN101 solution was prepared by dissolving ETN101 in water at 4 mM and diluted by KHB at the concentration of 4 μM of ETN101. Sixty microliters each of hepatocyte suspensions and 4 μM of ETN101 were added in a 96-well plate and incubated for 0, 5, 15, 30, and 45 min at 37 °C in a CO2 incubator. All incubations were conducted in triplicates. Reactions were terminated by the addition of 120 μL of ice-cold acetonitrile and followed by vortex mixing. After centrifugation at 13,000 rpm for 8 min at 4 °C, 5 μL of internal standard (IS, camptothecin in acetonitrile at 780 ng/mL) was added to 60 μL of supernatant. A 2 μL aliquot was injected into the LC-MS/MS system. The reliability of the analysis was confirmed by incorporating three different levels of quality control samples at the beginning and end of each analytical batch. The disappearance rate (k) of ETN101 was calculated by determined peak area ratio of ETN101 to IS over incubation period. Subsequently, half-life (t1/2), intrinsic clearance (Clint), and intrinsic hepatic clearance (Clint,hep) of ETN101 in human and animal hepatocytes were calculated using the following equation [34]: t1/2(min)=ln2/−k(elimination slope) ClintμL/min/10^6 cells=ln2/t1/2×μL incubation/hepatocytes (10^6 cells) Clint,hepmL/min/kg=Clint/1000×A×10^6 cells/g liver×B g liver/kg body weight […]
(§2) For the metabolic stability assay, an LC-MS/MS system was employed, consisting of an Agilent 1260 series HPLC system (Agilent Technologies Inc., Santa Clara, CA, USA) coupled to an API 4000 mass spectrometer (AB SCIEX, Concord, Vaughan, ON, Canada) equipped with a turbo electrospray interface. […] ETN101 and IS were detected using multiple reaction monitoring (MRM) mode under positive electrospray ionization (ESI). […]

The nature of series [2]: Metabolic stability in mouse hepatocytes. Type of series: in vitro ADME. The note with it: cryopreserved hepatocytes. The procedure: as §1, §2

What is called half-life is the time needed for the level to fall by half in the phase considered. The hepatocyte CLint is the rate of metabolic loss divided by the concentration. The CLint scaled is the capacity of the preparation to metabolise the compound, expressed as a volume cleared per time. `NCC(N)C(=O)Nc1ccc(-c2nc3ccccc3s2)cc1` (stereo not drawn) [ETN101, 2,3-diamino-N-(4-(benzo[d]thiazol-2-yl)phenyl)propanamide]: the half-life at 2 µM amounted to 1.88 h in series [1] (45 min incubation at 37 °C) and 2.01 h in series [2] (45 min incubation at 37 °C). In addition, the hepatocyte CLint at 2 µM in series [1] (45 min incubation at 37 °C) is 12.3 µL/min/1e6 cells; in series [2] (45 min incubation at 37 °C), 11.5 µL/min/1e6 cells. Also, the values for the CLint scaled at 2 µM in series [1] (scaled from Clint) and in series [2] (scaled from Clint) were 84.6 mL/min/kg and 136 mL/min/kg, respectively.

Values taken from PMC11356571, “The Comparative Metabolism of a Novel Hepatocellular Carcinoma Therapeutic Agent, 2,3-Diamino-N-(4-(benzo[d]thiazol-2-yl)phenyl)propanamide, in Human and Animal Hepatocytes” (Metabolites, 2024).
